Laboratory results taken from patent US10703746B2, “Mutant IDH1 inhibitors useful for treating cancer” (THE UNITED STATES OF AMERICA, AS REPRESENTED BY THE …, priority 2014, dated 2020).

Legend:
[1] = biological target: IDH1 R132C (Homo sapiens, UniProt O75874, R132C); experiment: IDH1 R132C enzymatic assay (NADPH depletion coupled to diaphorase/resazurin); format: biochemical
Protocol: (§1) Assays were conducted in a 1536-well black solid-bottom plate with a final assay volume of 9 μL.
For IDH1 R132C, 3 μL of enzyme (0.00032 mg/mL IDH1 […], 10% glycerol, 50 mM potassium phosphate pH 6.5, 5 mM MgCl2, 0.03% BSA) were added to the plate, followed by the addition of 23 nL of test compound in DMSO. The plate was lidded and incubated at room temperature for 30 minutes at which time 3 μL of substrate were added (0.012 mM NADPH, 0.6 mM α-KG, 10% glycerol, 50 mM potassium phosphate pH 6.5, 5 mM MgCl2, 0.03% BSA). […]

[2] = biological target: IDH1 R132H (Homo sapiens, UniProt O75874, R132H); experiment: IDH1 R132H enzymatic assay (NADPH depletion coupled to diaphorase/resazurin); format: biochemical
IDH1 R132H, sequence (O75874 whole entry R132H): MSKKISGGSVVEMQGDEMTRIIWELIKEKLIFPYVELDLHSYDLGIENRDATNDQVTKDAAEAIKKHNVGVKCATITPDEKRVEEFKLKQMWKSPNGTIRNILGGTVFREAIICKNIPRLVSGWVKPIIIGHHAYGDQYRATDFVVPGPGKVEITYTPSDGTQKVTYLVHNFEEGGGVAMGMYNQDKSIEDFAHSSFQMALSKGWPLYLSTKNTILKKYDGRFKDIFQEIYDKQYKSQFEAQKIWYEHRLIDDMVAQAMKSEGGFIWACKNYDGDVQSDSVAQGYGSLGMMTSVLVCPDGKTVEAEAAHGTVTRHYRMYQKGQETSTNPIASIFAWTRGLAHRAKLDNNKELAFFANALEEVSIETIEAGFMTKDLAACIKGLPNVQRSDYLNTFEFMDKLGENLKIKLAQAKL
Protocol: as §1
Specifically, for IDH1 R132H, 3 μL of enzyme (4 mM β-ME, 0.0005 mg/mL IDH1 R132H, 150 mM NaCl, 20 mM Tris pH 7.5, 10 mM MgCl2, 0.05% BSA) were added to the plate, followed by the addition of 23 nL of test compound in DMSO. The plate was lidded and incubated at room temperature for 30 minutes at which time 3 μL of substrate were added (0.016 mM NADPH, 2 mM α-KG, 150 mM NaCl, 20 mM Tris pH 7.5, 10 mM MgCl2, 0.05% BSA). This reaction was incubated at room-temperature for 60 minutes at which time the detection mix was added (0.06 mg/mL diaphorase, 0.036 mM resazurin, 150 mM NaCl, 20 mM Tris pH 7.5, 10 mM MgCl2, 0.05% BSA). […]

[3] = IDH1 R132C enzymatic inhibition, IC50 class
[4] = IDH1 R132H enzymatic inhibition, IC50 class
[5] = enzymatic inhibition, IDH1 R132C
[6] = enzymatic inhibition, IDH1 R132H

IDH1 R132C, sequence (O75874 whole entry R132C): as the sequence (O75874 whole entry R132H) above, with H132C counted along it

| SMILES | IC50 [1, 3] | IC50 [2, 4] | IC50 [1, 5] | IC50 [2, 6] |
| --- | --- | --- | --- | --- |
| CCc1cccc(CC)c1-n1c(C)c(C(=O)NCCCN)cc(-c2nc(-c3ccc(Cl)cc3)cs2)c1=O [Compound 6] | 1000 to 5000 nM | 1000 to 5000 nM | – | – |
| CCOc1ccc(Cl)cc1-n1c(C=C(C)C)c(C(=O)N2CCNCC2)cc(-c2nc(-c3ccc(Cl)cc3)cs2)c1=O [Compound 463] | – | – | < 300 nM | < 300 nM |
| CCc1cccc(CC)c1-n1c(CC(C)C)c(C(=O)N2CCNCC2)cc(-c2coc(-c3ccc(Cl)cc3)n2)c1=O [Compound 643] | 300 to 1000 nM | 300 to 1000 nM | – | – |
| CCc1cccc(Cl)c1-n1c(C=C(C)C)c(C(=O)N2CCNCC2)cc(-c2nc(-c3ccc(Cl)cc3)cs2)c1=O [Compound 448] | – | – | < 300 nM | < 300 nM |
| CCc1cccc(CC)c1-n1c(C(C)C)c(C(=O)OC)cc(-c2nc(-c3ccc(Cl)cc3)cs2)c1=O [Compound 125] | 1000 to 5000 nM | 1000 to 5000 nM | – | – |
| CCc1cccc(CC)c1-n1c(C)c(C(=O)N2CCN[C@H](C(=O)O)C2)cc(-c2nc(-c3ccc(Cl)cc3)cs2)c1=O [Compound 60] | 300 to 1000 nM | 300 to 1000 nM | – | – |
| CCc1cccc(OC)c1-n1c(C=C(C)C)c(C(=O)N2CCNCC2)cc(-c2nc(-c3ccc(Cl)cc3)cs2)c1=O [Compound 642] | < 300 nM | < 300 nM | – | – |
| CC1(C)CC(=O)c2cc(-c3nc(-c4ccc(Cl)cc4)cs3)c(=O)n(-c3ccccc3Oc3ccccc3)c2C1 [Compound 49] | < 300 nM | < 300 nM | – | – |
| CCc1cccc(CC)c1-n1c(CC(C)C)c(C(=O)N2CCNC(C(F)(F)F)C2)cc(-c2nc(-c3ccc(Cl)cc3)cs2)c1=O (stereo not drawn) [Compound 314] | 300 to 1000 nM | 300 to 1000 nM | – | – |
| CCc1cccc(CC)c1-n1c(C2CCOCC2)c(C(=O)N2CCNCC2)cc(-c2nc(-c3ccc(Cl)cc3)cs2)c1=O [Compound 446] | – | – | 300 to 1000 nM | 1000 to 5000 nM |
| CCc1cccc(C)c1-n1c2c(cc(-c3nc(-c4ccc(Cl)cc4)cs3)c1=O)C(=O)CCC2 [Compound 628] | 1000 to 5000 nM | 1000 to 5000 nM | – | – |
| CC(C)=Cc1c(C(=O)N2CCNCC2)cc(-c2nc(-c3ccc(Cl)cc3)cs2)c(=O)n1-c1cc(Cl)ccc1OC(C)C [Compound 553] | – | – | < 300 nM | < 300 nM |
| CCc1cccc(CC)c1-n1c(C)c(C(=O)OC)cc(-c2nc(-c3ccc(Cl)cc3)cs2)c1=O [Compound 268, methyl 5-(4-(4-chlorophenyl)thiazol-2-yl)-1-(2,6-diethylphenyl)-2-methyl-6-oxo-1,6-dihydropyridine-3-carboxylate] | 5000 to 20000 nM | > 20000 nM | – | – |
| CCc1cccc(CC)c1-n1c(C=C(C)C)c(C(=O)N2CCNCC2)cc(-c2nn(-c3ccc(Cl)cc3)cc2C)c1=O [Compound 638] | 1000 to 5000 nM | < 300 nM | – | – |
| CCCSc1ccccc1-n1c2c(cc(-c3nc(-c4ccc(Cl)cc4)cs3)c1=O)C(=O)CC(C)(C)C2 [Compound 135] | 300 to 1000 nM | 1000 to 5000 nM | – | – |
| Cc1ccc(Cl)c(-n2c3c(cc(-c4nc(-c5ccc(Cl)cc5)cs4)c2=O)C(=O)CC(C)(C)C3)c1 [Compound 613] | – | – | 300 to 1000 nM | 300 to 1000 nM |
| C=Cc1sc(-c2cc(C(=O)N3CCNCC3)c(CC(C)C)n(-c3c(CC)cccc3CC)c2=O)nc1-c1ccc(Cl)cc1 [Compound 413] | – | – | < 300 nM | 300 to 1000 nM |
| COc1ccc(OC)c(-n2c3c(cc(-n4cnc(-c5ccccc5)c4)c2=O)C(=O)CC(C)(C)C3)c1 [Compound 154] | 5000 to 20000 nM | 5000 to 20000 nM | – | – |
| CCc1cccc(CC)c1-n1c(C)c(C(=O)N(C)CCN)cc(-c2nc(-c3ccc(Cl)cc3)cs2)c1=O [Compound 152] | 1000 to 5000 nM | 1000 to 5000 nM | – | – |
| CCc1cccc(CC)c1-n1c(C=C(C)C)c(C(=O)N2CCC3(CCNC3)C2)cc(-c2nc(-c3ccc(Cl)cc3)cs2)c1=O (stereo not drawn) [Compound 659] | < 300 nM | 300 to 1000 nM | – | – |
| CCc1cccc(CC)c1-n1c(C=C(C)C)c(C(=O)N2CCN[C@H](C)C2)cc(-c2nc(-c3ccc(C(F)(F)F)cc3)cs2)c1=O [Compound 483] | – | – | < 300 nM | < 300 nM |
| CCc1cccc(CC)c1-n1c(CC(C)C)c(C(=O)N2CCNCC2C(=O)OC)cc(-c2nc(-c3ccc(Cl)cc3)cs2)c1=O (stereo not drawn) [Compound 147] | < 300 nM | 1000 to 5000 nM | – | – |
| COc1ccc(OC)c(-n2c3c(cc(-c4nc(-c5ccc(Cl)cc5)c[nH]4)c2=O)C(=O)CC(C)(C)C3)c1 [Compound 291] | 1000 to 5000 nM | 1000 to 5000 nM | – | – |
| CC1(C)CC(=O)c2cc(-c3nc(-c4ccc(Cl)cc4)cs3)c(=O)n(-c3ccccc3CC(F)(F)F)c2C1 [Compound 115] | 300 to 1000 nM | 300 to 1000 nM | – | – |
